Source: US9133158B2, “Bicyclic dihydroisoquinoline-1-one derivatives” (Hoffmann-La Roche Inc., priority 2011, dated 2015)

Assays:
human CYP11B1 = molecular target: T1, human CYP11B1 (Homo sapiens, UniProt P15538); test: G-402 cellular enzyme assay, human CYP11B1 (cortisol release, HTRF); format: cell-based; details: G-402 cells, 1 μM Deoxycortisol
T1 construct: expressed in transfected cells
T1 sequence (P15538 25-503): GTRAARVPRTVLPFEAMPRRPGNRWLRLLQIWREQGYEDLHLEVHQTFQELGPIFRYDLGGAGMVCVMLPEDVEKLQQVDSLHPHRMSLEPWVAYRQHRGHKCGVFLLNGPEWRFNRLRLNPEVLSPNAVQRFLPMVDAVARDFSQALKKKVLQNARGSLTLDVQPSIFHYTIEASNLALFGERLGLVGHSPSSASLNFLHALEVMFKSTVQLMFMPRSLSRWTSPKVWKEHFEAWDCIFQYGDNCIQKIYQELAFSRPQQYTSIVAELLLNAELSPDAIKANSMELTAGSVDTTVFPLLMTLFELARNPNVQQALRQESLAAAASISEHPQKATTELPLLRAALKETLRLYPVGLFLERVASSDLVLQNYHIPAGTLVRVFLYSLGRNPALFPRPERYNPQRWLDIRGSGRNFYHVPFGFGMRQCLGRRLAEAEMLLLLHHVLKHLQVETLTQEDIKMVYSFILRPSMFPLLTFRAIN
In short: (§1)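 Supernatant steroid product measured by HTRF (aldosterone for CYP11B2, cortisol for CYP11B1) after 16 h exposure of stably transfected G-402 cells to compound. Substrates were 1 μM deoxycorticosterone and 1 μM deoxycortisol, respectively; EC50 derived from a four-parameter MMF curve fit.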

human CYP11B2 = molecular target: T2, human CYP11B2 (Homo sapiens, UniProt P19099); test: G-402 cellular enzyme assay, human CYP11B2 (aldosterone release, HTRF); format: cell-based; details: G-402 cells, 1 μM Deoxycorticosterone
T2 construct: expressed in transfected cells
T2 sequence (P19099 25-503): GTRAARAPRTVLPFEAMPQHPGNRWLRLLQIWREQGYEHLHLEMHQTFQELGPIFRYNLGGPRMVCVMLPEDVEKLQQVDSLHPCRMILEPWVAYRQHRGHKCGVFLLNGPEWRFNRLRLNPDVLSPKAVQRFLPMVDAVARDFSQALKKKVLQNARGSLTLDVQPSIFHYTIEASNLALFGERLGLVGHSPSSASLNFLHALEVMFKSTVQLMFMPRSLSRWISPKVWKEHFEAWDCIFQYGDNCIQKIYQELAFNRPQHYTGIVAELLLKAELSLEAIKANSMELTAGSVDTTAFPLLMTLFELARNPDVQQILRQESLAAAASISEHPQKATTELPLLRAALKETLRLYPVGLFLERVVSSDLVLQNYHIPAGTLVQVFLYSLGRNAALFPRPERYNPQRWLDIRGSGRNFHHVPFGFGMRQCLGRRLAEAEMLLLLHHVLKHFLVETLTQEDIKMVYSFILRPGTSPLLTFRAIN
In short: as §1

SMILES	EC50 (human CYP11B1) [nM]	EC50 (human CYP11B2) [nM]
CCS(=O)(=O)NCc1cncc(N2C(=O)c3ccc(C#N)cc3C2(C)C)c1 [Example 389, Ethanesulfonic acid [5-(6-cyano-1,1-dimethyl-3-oxo-1,3-dihydro-isoindol-2-yl)-pyridin-3-ylmethyl]-amide]	2950	115
CC1(C)c2cc(Cl)ccc2C(=O)N1c1cncc(CNS(C)(=O)=O)c1 [Example 391, N-[5-(6-Chloro-1,1-dimethyl-3-oxo-1,3-dihydro-isoindol-2-yl)-pyridin-3-ylmethyl]-methane-sulfonamide]	1450	29.7
CN(Cc1cncc(N2C(=O)c3ccc(Cl)cc3C2(C)C)c1)S(C)(=O)=O [Example 392, N-[5-(6-Chloro-1,1-dimethyl-3-oxo-1,3-dihydro-isoindol-2-yl)-pyridin-3-ylmethyl]-N-methyl-methane-sulfonamide]	327	9.2
CCS(=O)(=O)NCc1cncc(N2C(=O)c3ccc(F)cc3C23CC3)c1 [Example 393, N-{[5-(6′-Fluoro-3′-oxospiro [cyclopropane-1,1′-isoindol]-2′(3′H)-yl)pyridin-3-yl]methyl} ethane-sulfonamide]	8430	265
CCS(=O)(=O)N(C)Cc1cncc(N2C(=O)c3ccc(F)cc3C23CC3)c1 [Example 394, N-{[5-(6′-Fluoro-3′-oxospiro [cyclopropane-1,1′-isoindol]-2′(3′H)-yl)pyridin-3-yl]methyl}-N-methylethane-sulfonamide]	2920	45.6
CCS(=O)(=O)N(C)Cc1cncc(N2C(=O)c3ccc(Cl)cc3C2(C)C)c1 [Example 395, Ethanesulfonic acid [5-(6-chloro-1,1-dimethyl-3-oxo-1,3-dihydro-isoindol-2-yl)-pyridin-3-ylmethyl]-methyl-amide]	679	8
CS(=O)(=O)NCc1cncc(N2C(=O)c3cc(F)ccc3C23CC3)c1 [Example 401, N-{[5-(5′-Fluoro-3′-oxospiro [cyclopropane-1,1′-isoindol]-2′(3′H)-yl)pyridin-3-yl]methyl} methane-sulfonamide]	9100	360
CC1(C)c2cc(C#N)ccc2C(=O)N1c1cncc(CNS(C)(=O)=O)c1 [Example 402, N-[5-(6-Cyano-1,1-dimethyl-3-oxo-1,3-dihydro-isoindol-2-yl)-pyridin-3-ylmethyl]-methane-sulfonamide]	2210	34.2

Other lines, results leading:

EC50 (human CYP11B1) [nM]	EC50 (human CYP11B2) [nM]	SMILES
3970	272	CCS(=O)(=O)NCc1cncc(N2C(=O)c3ccc(F)cc3C2(C)C)c1 [Example 388, Ethanesulfonic acid [5-(6-fluoro-1,1-dimethyl-3-oxo-1,3-dihydro-isoindol-2-yl)-pyridin-3-ylmethyl]-amide]
5250	207	CCC(=O)NCc1cncc(N2C(=O)c3ccc(Cl)cc3C23CC3)c1 [Example 396, N-{[5-(6′-Chloro-3′-oxospiro [cyclopropane-1,1′-isoindol]-2′(3′H)-yl)pyridin-3-yl]methyl} propanamide]
7950	282	CCC(=O)NCc1cncc(N2C(=O)c3ccc(Cl)cc3C2(C)C)c1 [Example 397, N-[5-(6-Chloro-1,1-dimethyl-3-oxo-1,3-dihydro-isoindol-2-yl)-pyridin-3-ylmethyl]-propionamide]
2300	281	CCC(=O)NCc1cncc(N2C(=O)c3ccc(F)cc3C2(C)C)c1 [Example 398, N-[5-(6-Fluoro-1,1-dimethyl-3-oxo-1,3-dihydro-isoindol-2-yl)-pyridin-3-ylmethyl]-propionamide]
2740	58.9	CC(=O)NCc1cncc(N2C(=O)c3ccc(Cl)cc3C2(C)C)c1 [Example 400, N-[5-(6-Chloro-1,1-dimethyl-3-oxo-1,3-dihydro-isoindol-2-yl)-pyridin-3-ylmethyl]-acetamide]
